Experimental data reported in US11318139B2, “Methods for treating brain metastases using combinations of anti-P13K and anti-mTOR agents” (Dana-Farber Cancer Institute, Inc., priority 2016, dated 2022).

Columns and labels:
DF-BM354 = assay: In vivo treatment of orthotopic HER2-positive BCBM patient-derived xenograft DF-BM354 (bioluminescence imaging, survival); parameters: species or system mice; settings: BKM120 PO 30 mg/kg QD; RAD001 PO 7.5 mg/kg QD; MEK162 PO 15 mg/kg; GNE-317 PO 40 mg/kg QD
Experimental: Luciferase-expressing tumors were then propagated in mice.
The signals were analyzed with CareStream MI Software.
All compounds were purchased from Haoyuan ChemExpress Co.
GNE-317 obtained from Genetcch was dissolved in 0.5% methylcellulose/0.2% Tween 80 and given oral once/day at 40 mg/kg.

[1] = statement with literature citation; cited from earlier work
[2] = system: PI3K pathway signaling (pAKT, pS6RP, p4EBP1), Ki67 and cleaved caspase-3 in DF-BM355 tumors; assay: Pharmacodynamic IHC / Western blot analysis of treated DF-BM355 tumors; settings: IHC after 4 days of treatment
Experimental: Diaminobenzidine (DAB), brightfield staining was performed according to standard protocols using DAB EnVision+™ System (Dako) on paraffin sections. Briefly five micron thick sections were deparaffinized with xylene, followed by gradation washes in 100%, 95%, 80% ethyl alcohol before performing heat antigen retrieval in 10 mM sodium citrate buffer (pH 6.0) for 20 minutes. Subsequently, sections were treated with peroxidase block (Dako) for ten minutes followed by overnight incubation at 4° C. with the following primary antibodies: polyclonal PTEN (Cell Signaling #9559), pS6RP-Ser235/236 (Cell Signaling #2211), p4EBP1-Thr37/46 (Cell Signaling #2855), or cleaved caspase-3 (Cell Signaling #9664) from Cell Signaling; estrogen receptor (ER) (ThermoScientific SP1) or HER2 (ThermoScientific SP3) from ThermoScientific; or progesterone receptor (PR) (Dako PgR 636), CK7 (Dako), GFAP (Dako #z0334), OLIG2 (Dako), or monoclonal mouse anti-Ki67 (Dako MIB-1 or Vector lab #VP K-451) from Dako or Vector lab. […]
Ki67 and cleaved caspase-3 indexes were calculated as a percentage of positive cells in 4-5 random areas of each sample. Images were captured at 40× or 60× magnification and quantifications of Ki67 and cleaved caspase-3 immunoreactivity were performed using the ImmunoRatio plugin provided in the Image J software. […]

| Compound | therapeutic response / tumor growth of DF-BM354 (bioluminescence imaging, survival) (DF-BM354) | blood-brain barrier penetration [1] | number of Ki67-positive cells (cell proliferation) in DF-BM355 tumors [2] |
| --- | --- | --- | --- |
| COC1(c2sc3c(N4CCOCC4)nc(-c4cnc(N)nc4)nc3c2C)COC1 [GNE-317, 5-(6-(3-methoxyoxetan-3-yl)-7-methyl-4-morpholinothieno[3,2-d]pyrimidin-2-yl)pyrimidin-2-amine] | marked regression | effectively crossing the blood brain barrier | – |
| CO[C@H]1C[C@@H]2CC[C@@H](C)[C@@](O)(O2)C(=O)C(=O)N2CCCC[C@H]2C(=O)O[C@H]([C@H](C)C[C@@H]2CC[C@@H](OCCO)[C@H](OC)C2)CC(=O)[C@H](C)/C=C(\C)[C@@H](O)[C@@H](OC)C(=O)[C@H](C)C[C@H](C)/C=C/C=C/C=C/1C [RAD001] | neither BKM120 nor RAD001 monotherapy had meaningful effects | demonstrated blood-brain barrier (BBB) penetrance | – |
| Nc1cc(C(F)(F)F)c(-c2cc(N3CCOCC3)nc(N3CCOCC3)n2)cn1 [BKM120, 5-(2,6-dimorpholin-4-ylpyrimidin-4-yl)-4-(trifluoromethyl)pyridin-2-amine] | neither BKM120 nor RAD001 monotherapy had meaningful effects | permeates the blood-brain barrier | did not decrease |
